Experimental data: ChEMBL document CHEMBL1152225, “Optimization of a series of potent and selective ketone histone deacetylase inhibitors” (Bioorg Med Chem Lett, 2008)

Tests used:
HeLa = assay: Antiproliferative activity against human HeLa cells after 72 hrs by celltiter-blue viability assay; assay type: functional, cell-based
Histone deacetylase 1 = Histone deacetylase 1 (Homo sapiens, UniProt Q13547)
Description: Inhibition of human recombinant C-terminally flag tagged HDAC1

Histone deacetylase 3 = Histone deacetylase 3 (Homo sapiens, UniProt O15379)
[1] = target: T1, Protein deacetylase HDAC6 (Homo sapiens, UniProt Q9UBN7)
T1 sequence (Q9UBN7 whole entry): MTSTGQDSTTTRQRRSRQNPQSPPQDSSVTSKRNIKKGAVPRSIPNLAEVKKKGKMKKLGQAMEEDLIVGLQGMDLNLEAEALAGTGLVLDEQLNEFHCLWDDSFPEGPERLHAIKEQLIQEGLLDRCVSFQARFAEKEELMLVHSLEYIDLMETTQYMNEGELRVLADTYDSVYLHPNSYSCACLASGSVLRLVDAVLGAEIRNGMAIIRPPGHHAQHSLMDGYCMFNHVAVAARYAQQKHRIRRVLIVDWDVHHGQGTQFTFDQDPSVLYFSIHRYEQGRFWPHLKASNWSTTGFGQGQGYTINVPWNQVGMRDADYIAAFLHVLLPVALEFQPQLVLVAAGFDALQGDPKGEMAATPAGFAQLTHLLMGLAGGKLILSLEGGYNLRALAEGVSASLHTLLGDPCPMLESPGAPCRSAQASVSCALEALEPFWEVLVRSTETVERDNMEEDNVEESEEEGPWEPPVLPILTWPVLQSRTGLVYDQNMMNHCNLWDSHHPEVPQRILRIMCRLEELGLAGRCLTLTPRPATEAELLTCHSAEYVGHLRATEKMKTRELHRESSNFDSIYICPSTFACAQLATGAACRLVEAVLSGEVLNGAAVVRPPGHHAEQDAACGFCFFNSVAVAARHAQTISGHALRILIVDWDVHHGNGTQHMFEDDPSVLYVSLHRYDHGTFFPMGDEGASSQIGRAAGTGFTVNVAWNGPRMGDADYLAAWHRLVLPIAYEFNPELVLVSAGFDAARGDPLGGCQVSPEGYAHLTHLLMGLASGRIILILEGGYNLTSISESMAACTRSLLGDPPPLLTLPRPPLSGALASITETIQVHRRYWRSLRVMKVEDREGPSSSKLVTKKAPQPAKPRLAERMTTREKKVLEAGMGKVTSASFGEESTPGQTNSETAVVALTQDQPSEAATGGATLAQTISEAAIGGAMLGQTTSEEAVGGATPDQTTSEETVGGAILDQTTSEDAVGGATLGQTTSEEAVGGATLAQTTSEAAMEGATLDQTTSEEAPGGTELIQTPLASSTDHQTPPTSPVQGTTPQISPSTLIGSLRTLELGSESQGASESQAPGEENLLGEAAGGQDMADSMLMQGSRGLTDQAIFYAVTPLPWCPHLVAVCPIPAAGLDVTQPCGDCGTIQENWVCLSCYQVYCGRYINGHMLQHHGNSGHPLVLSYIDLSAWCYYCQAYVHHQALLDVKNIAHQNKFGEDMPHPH

[2] = Metabolic stability in rat liver microsomes assessed as intrinsic clearance; assay type: ADME, Microsome

Sequence of Histone deacetylase 3 (O15379 whole entry): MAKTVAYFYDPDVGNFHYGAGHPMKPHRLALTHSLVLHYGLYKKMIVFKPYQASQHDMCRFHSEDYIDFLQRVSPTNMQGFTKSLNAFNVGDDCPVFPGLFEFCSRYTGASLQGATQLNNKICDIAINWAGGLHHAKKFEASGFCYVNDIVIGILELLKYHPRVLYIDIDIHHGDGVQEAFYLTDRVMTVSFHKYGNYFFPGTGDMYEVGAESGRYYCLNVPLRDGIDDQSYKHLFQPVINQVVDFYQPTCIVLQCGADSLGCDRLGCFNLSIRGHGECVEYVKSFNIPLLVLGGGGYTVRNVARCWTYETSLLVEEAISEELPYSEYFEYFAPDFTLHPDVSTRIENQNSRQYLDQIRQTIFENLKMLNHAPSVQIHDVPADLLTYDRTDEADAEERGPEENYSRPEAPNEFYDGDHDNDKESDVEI
Sequence of Histone deacetylase 1 (Q13547 whole entry): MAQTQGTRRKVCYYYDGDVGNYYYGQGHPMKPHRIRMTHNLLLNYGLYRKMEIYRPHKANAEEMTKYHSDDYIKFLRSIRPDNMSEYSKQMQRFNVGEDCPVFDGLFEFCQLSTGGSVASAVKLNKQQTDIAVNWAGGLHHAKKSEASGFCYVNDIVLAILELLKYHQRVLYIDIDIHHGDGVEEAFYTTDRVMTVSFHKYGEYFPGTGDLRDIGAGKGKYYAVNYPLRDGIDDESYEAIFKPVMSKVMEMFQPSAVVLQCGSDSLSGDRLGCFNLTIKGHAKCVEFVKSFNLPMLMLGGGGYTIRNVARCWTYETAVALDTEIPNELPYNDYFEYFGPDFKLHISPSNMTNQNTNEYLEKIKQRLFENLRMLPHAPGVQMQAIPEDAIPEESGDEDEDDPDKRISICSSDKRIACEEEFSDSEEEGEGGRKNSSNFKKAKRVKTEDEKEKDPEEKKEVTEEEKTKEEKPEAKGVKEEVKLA

| IC50 (HeLa) | IC50 (Histone deacetylase 1) | IC50 (Histone deacetylase 3) | IC50 [1] | microsomal CLint [2] | SMILES |
| --- | --- | --- | --- | --- | --- |
| 1300 nM | 180 nM | – | – | – | CC(=O)CCCCC[C@H](NC(=O)C1CCN(C)CC1)c1ncc(-c2ccccc2Cl)[nH]1 |
| 1540 nM | 480 nM | – | – | – | CC(=O)CCCCC[C@H](NC(=O)C1CCN(C)CC1)c1ncc(-c2cccc(C#N)c2)[nH]1 |
| 690 nM | 74 nM | 180 nM | 3500 nM | – | CCCCC(=O)CCCCC[C@H](NC(=O)C1CCN(C)CC1)c1ncc(-c2ccc3ccccc3c2)[nH]1 |
| 9700 nM | > 500 nM | – | – | – | CC(=O)CCCCC[C@H](NC(=O)C1CCN(C)CC1)c1ncc(-c2ccccn2)[nH]1 |
| 3200 nM | 240 nM | – | – | – | CC(=O)CCCCC[C@H](NC(=O)C1CCN(C)CC1)c1ncc(-c2ccsc2)[nH]1 |
| 1100 nM | 110 nM | – | – | – | CC(=O)CCCCC[C@H](NS(=O)(=O)c1cccc(C#N)c1)c1ncc(-c2ccccc2)[nH]1 |
| 1500 nM | 120 nM | – | – | 330 µL/min/mg | CC(=O)CCCCC[C@H](NC(=O)C1CCN(C)CC1)c1ncc(-c2ccc(C#N)cc2)[nH]1 |
| 1100 nM | 300 nM | – | – | – | CC(=O)CCCCC[C@H](NC(=O)c1ccc2c(c1)OCCO2)c1ncc(-c2ccccc2)[nH]1 |
| 400 nM | 220 nM | – | – | 154 µL/min/mg | CC(=O)CCCCC[C@H](NC(=O)C1CCCN(C)C1)c1ncc(-c2ccccc2)[nH]1 (some centres not stated) |
| 530 nM | 140 nM | – | – | – | CC(=O)CCCCC[C@H](NC(=O)c1cncs1)c1ncc(-c2ccccc2)[nH]1 |
| 680 nM | 75 nM | – | – | 246 µL/min/mg | CC(=O)CCCCC[C@H](NC(=O)C1CCN(C)CC1)c1ncc(-c2ccc(Cl)cc2)[nH]1 |
| 390 nM | 50 nM | – | – | 170 µL/min/mg | CC(=O)CCCCC[C@H](NC(=O)C1CCN(C)CC1)c1ncc(-c2ccc(-c3ccccc3)cc2)[nH]1 |
| 1700 nM | 220 nM | – | – | 143 µL/min/mg | CC(=O)CCCCC[C@H](NC(=O)CCN1CC2CCC1C2)c1ncc(-c2ccccc2)[nH]1 (some centres not stated) |
| 1300 nM | 55 nM | – | – | – | CC(=O)CCCCC[C@H](NS(=O)(=O)c1cccc([N+](=O)[O-])c1)c1ncc(-c2ccccc2)[nH]1 |
| 2000 nM | 500 nM | – | – | 64 µL/min/mg | CC(=O)CCCCC[C@H](NC(=O)CN1CCN(C)CC1)c1ncc(-c2ccccc2)[nH]1 |
| 200 nM | 16 nM | 27 nM | 1400 nM | – | CCCC(=O)CCCCC[C@H](NC(=O)C1CCN(C)CC1)c1ncc(-c2ccc3ccccc3c2)[nH]1 |

| IC50 (HeLa) | IC50 (Histone deacetylase 1) | IC50 (Histone deacetylase 3) | IC50 [1] | microsomal CLint [2] | SMILES |
| --- | --- | --- | --- | --- | --- |
| 1000 nM | 130 nM | – | – | – | CC(=O)CCCCC[C@H](NS(=O)(=O)c1ccc([N+](=O)[O-])c(F)c1)c1ncc(-c2ccccc2)[nH]1 |
| 1100 nM | 280 nM | – | – | 501 µL/min/mg | CC(=O)CCCCC[C@H](NC(=O)C1CCN(C)C1)c1ncc(-c2ccccc2)[nH]1 (some centres not stated) |
| 1200 nM | 180 nM | – | – | – | CC(=O)CCCCC[C@H](NS(=O)(=O)c1ccc(C#N)cc1)c1ncc(-c2ccccc2)[nH]1 |
| 980 nM | 250 nM | – | – | 68 µL/min/mg | CC(=O)CCCCC[C@H](NC(=O)C1CCN(C)CC1)c1ncc(-c2ccccc2)[nH]1 |
| 400 nM | 90 nM | – | – | – | CC(=O)CCCCC[C@H](NC(=O)C1CCN(C)CC1)c1ncc(-c2cccc(Cl)c2)[nH]1 |
| 1100 nM | 160 nM | – | – | – | CC(=O)CCCCC[C@H](NC(=O)c1cccc(C#N)c1)c1ncc(-c2ccccc2)[nH]1 |
| 1400 nM | 250 nM | – | – | – | COc1ccc(S(=O)(=O)N[C@@H](CCCCCC(C)=O)c2ncc(-c3ccccc3)[nH]2)cc1 |
| 7300 nM | 270 nM | – | – | – | CC(=O)CCCCC[C@H](NS(=O)(=O)c1ccccc1C#N)c1ncc(-c2ccccc2)[nH]1 |
| 1300 nM | 180 nM | – | – | – | CC(=O)CCCCC[C@H](NC(=O)C1CCN(C)CC1)c1ncc(-c2csc3ccccc23)[nH]1 |
| 2700 nM | 710 nM | – | – | > 300 µL/min/mg | CC(=O)CCCCC[C@H](NC(=O)C1CCCCN1C)c1ncc(-c2ccccc2)[nH]1 (some centres not stated) |
| 210 nM | 12 nM | 12 nM | 800 nM | – | CCC(=O)CCCCC[C@H](NC(=O)C1CCN(C)CC1)c1ncc(-c2ccc3ccccc3c2)[nH]1 |
| 2200 nM | 380 nM | – | – | 99 µL/min/mg | CC(=O)CCCCC[C@H](NC(=O)C1CCN(C)CC1)c1ncc(-c2ccc(F)cc2)[nH]1 |
| > 25000 nM | > 5000 nM | – | – | – | CC(=O)CCCCC[C@H](NC(=O)C1CCN(C)CC1)c1ncc(C(C)(C)C)[nH]1 |
| 550 nM | 100 nM | – | – | > 300 µL/min/mg | CC(=O)CCCCC[C@H](NC(=O)C1CCN(C)CC1)c1ncc(-c2ccc(Br)cc2)[nH]1 |
| 1300 nM | 190 nM | – | – | > 300 µL/min/mg | CC(=O)CCCCC[C@H](NC(=O)CCN1CCCCC1)c1ncc(-c2ccccc2)[nH]1 |
| 14700 nM | > 1500 nM | – | – | – | CC(=O)CCCCC[C@H](NC(=O)C1CCN(C)CC1)c1nc(C)c(-c2ccccc2)[nH]1 |
